The record followed here is patent publication US9115169B2, “Method of treating tumors” (Lytix Biopharma AS, priority 2000, dated 2015).

≈ marks a conversion by molar mass, not a printed value. *1 amine or outer side, *2 acyl side, *3 side chain or, on linkers, in order; H or OH if unused. Where a SMILES comes first, the peptide text is derived from it. [ ]: non-standard residue; d: D form. The star is where a group is joined. 2Nal = N[C@@H](Cc1ccc2ccccc2c1)C(=O)O; Ethylenediamine = C(CN[*:2])N[*:1]; Cbz = O=C(OCc1ccccc1)*; OBn = c1ccc(CO*)cc1

In test [1] the test system is MRSA ATCC 33591. Conditions: ATCC 33591.
Experimental: (§1) All strains were stored at −70° C. […] All assays were performed in duplicate.
Test [2] relates to Staphylococcus aureus ATCC 25923. To be noted: ATCC 25923.
Test [3] relates to Escherichia coli ATCC 25922. To be noted: ATCC 25922.
Test [4] relates to MRSE ATCC 27626. Conditions: ATCC 27626.
Experimental: as §1
The test system of test [5] is MRSA ATCC 33591.
Experimental: as §1
For test [6], the system named is Staphylococcus aureus ATCC 25923. To be noted: ATCC 25923. The source holds these as a separate data set.
Test [7] deals with Escherichia coli ATCC 25922. Conditions: ATCC 25922. This is another data set of the same source.
Test [8] concerns MRSE ATCC 27626.
Experimental: as §1

Take `C[C@H](N)C(=O)N[C@@H](CCCNC(=N)N)C(=O)OCc1ccc(-c2ccccc2)cc1` [AROBip]: the “Minimum inhibitory concentration MRSA” value in the test on MRSA ATCC 33591 [1] was 37.5 µg/mL (≈ 91.1 µM). Moreover, the “Minimum inhibitory concentration S. aureus” value in test [2] was 100 µg/mL (≈ 243 µM). The “Minimum inhibitory concentration E. coli” value in test [3] worked out at 300 µg/mL (≈ 729 µM). Moreover, in the test with MRSE ATCC 27626 [4], the “Minimum inhibitory concentration MRSE” value came out at 25 µg/mL (≈ 60.8 µM).
Turning to `N=C(N)NCCC[C@H](NC(=O)[C@H](Cc1ccc(O)cc1)NC(=O)[C@H](CCCNC(=N)N)NC(=O)[C@H](Cc1ccc2ccccc2c1)NC(=O)[C@@H](N)CCCNC(=N)N)C(=O)N[C@@H](Cc1ccc2ccccc2c1)C(N)=O` [Arg-(2-Nal)-Arg-Tyr-Arg-(2-Nal)NH2] (H-R[2Nal]RYR[2Nal]-NH2; N-terminus assumed), the “MBC MRSA” value in the test on MRSA ATCC 33591 [5] is 5 µg/mL (≈ 4.79 µM). Further, the “MIC MRSA” value against MRSA ATCC 33591 [1] is 2.5 µg/mL (≈ 2.4 µM). Besides, the “MBC S. aureus” value in test [6] amounted to 5 µg/mL (≈ 4.79 µM). Moreover, the “MBC E. coli” value in test [7] is 15 µg/mL (≈ 14.4 µM). In addition, the “MIC S. aureus” value in test [2] is 5 µg/mL (≈ 4.79 µM). Further, the “MIC E. coli” value in test [3] worked out at 10 µg/mL (≈ 9.59 µM). In the test with MRSE ATCC 27626 [8], the “MBC MRSE” value turned out to be 2.5 µg/mL (≈ 2.4 µM). Also, the “MIC MRSE” value with MRSE ATCC 27626 [4] amounted to 2.5 µg/mL (≈ 2.4 µM).
For the molecule `N=C(N)NCCC[C@H](NC(=O)[C@@H](N)Cc1ccc(-c2ccccc2)cc1)C(=O)OCc1ccc(-c2ccccc2)cc1` [BipROBip], in the test with MRSA ATCC 33591 [1], the “Minimum inhibitory concentration MRSA” value turned out to be 5.0 µg/mL (≈ 8.87 µM). Besides, in test [2], the “Minimum inhibitory concentration S. aureus” value is 5.0 µg/mL (≈ 8.87 µM). Also, the “Minimum inhibitory concentration E. coli” value in test [3] is 50 µg/mL (≈ 88.7 µM). Also, the “Minimum inhibitory concentration MRSE” value in the test on MRSE ATCC 27626 [4] was determined as 5.0 µg/mL (≈ 8.87 µM).
On to `N=C(N)NCCC[C@H](NC(=O)[C@@H](N)Cc1ccccc1)C(=O)OCc1ccc(-c2ccccc2)cc1` [FROBip], for which the “Minimum inhibitory concentration MRSA” value in the test on MRSA ATCC 33591 [1] is 12.5 µg/mL (≈ 25.6 µM). The “Minimum inhibitory concentration S. aureus” value in test [2] is 12.5 µg/mL (≈ 25.6 µM). The “Minimum inhibitory concentration E. coli” value in test [3] stood at 100 µg/mL (≈ 205 µM). Moreover, the “Minimum inhibitory concentration MRSE” value with MRSE ATCC 27626 [4] is 5 µg/mL (≈ 10.3 µM).
In the case of `COC(=O)[C@H](CCCNC(=N)N)NC(=O)[C@H](Cc1c[nH]c2ccccc12)NC(=O)Cc1c[nH]c2ccccc12` [Ind WR OMe, Ind-Trp-Arg-OMe], in test [6], the “MBC S. aureus” value was >200 (>200) μg/ml. The “MBC E. coli” value in test [7] is >200 (>200) μg/ml. Further, the “MIC S. aureus” value in test [2] is recorded as >200 (>200) μg/ml. Besides, the “MIC E. coli” value in test [3] is >200 (>200) μg/ml.
With `NCCCC[C@H](N)C(=O)N[C@@H](Cc1ccccc1)C(=O)OCc1ccccc1` [KF-Obzl], in the test with MRSA ATCC 33591 [1], the “MIC MRSA” value stood at 300 µg/mL (≈ 782 µM). In test [2], the “MIC S. aureus” value came to 300 µg/mL (≈ 782 µM). Besides, the “MIC E. coli” value in test [3] was over 300 µg/mL. Besides, the “MIC MRSE” value with MRSE ATCC 27626 [4] was determined as 150 µg/mL (≈ 391 µM).
On to `NCCCC[C@H](N)C(=O)N[C@@H](Cc1c[nH]c2ccccc12)C(=O)OCc1ccccc1` [KW-Obzl] (H-Lys-Trp-OBn; N-terminus assumed), for which, in the test on MRSA ATCC 33591 [1], the “MIC MRSA” value is 37.5 µg/mL (≈ 88.8 µM) and the “Minimum inhibitory concentration MRSA” value was 37.5 µg/mL (≈ 88.8 µM). Also, in test [2], the “MIC S. aureus” value turned out to be 37.5 µg/mL (≈ 88.8 µM) and the “Minimum inhibitory concentration S. aureus” value was determined as 37.5 µg/mL (≈ 88.8 µM). Further, in test [3], the “MIC E. coli” value is over 300 µg/mL and the “Minimum inhibitory concentration E. coli” value is over 300 µg/mL. Also, in the test on MRSE ATCC 27626 [4], the “MIC MRSE” value was determined as 25 µg/mL (≈ 59.2 µM) and the “Minimum inhibitory concentration MRSE” value was determined as 25 µg/mL (≈ 59.2 µM).
As for `N=C(N)NCCC[C@H](N)C(=O)N[C@@H](Cc1c[nH]c2ccccc12)C(=O)NCCNC(=O)OCc1ccccc1` [RW DaeZ, H-Arg-Trp-Dae-Z] (H-Arg-Trp-{Ethylenediamine-Cbz}), in test [6], the “MBC S. aureus” value came to 75 µg/mL (≈ 140 µM). The “MBC E. coli” value in test [7] is >200 (>200) μg/ml. Further, in test [2], the “MIC S. aureus” value turned out to be 50 µg/mL (≈ 93.2 µM). Further, in test [3], the “MIC E. coli” value was >200 (>200) μg/ml.
In the case of `N=C(N)NCCC[C@H](N)C(=O)N[C@@H](Cc1c[nH]c2ccccc12)C(=O)OCc1ccccc1` [RW OBz] (H-Arg-Trp-OBn), in the test with MRSA ATCC 33591 [5], the “MBC MRSA” value amounted to 50 µg/mL (≈ 111 µM). Further, the “MIC MRSA” value with MRSA ATCC 33591 [1] came to 25 µg/mL (≈ 55.5 µM). In test [6], the “MBC S. aureus” value is recorded as 50 (50) μg/ml. Besides, the “MBC E. coli” value in test [7] is given as >200 (>200) μg/ml. For the same molecule, the “MIC S. aureus” value in test [2] is listed as 50 (50) μg/ml. Moreover, the “MIC E. coli” value in test [3] is reported as >200 (>200) μg/ml. Besides, the “MBC MRSE” value in the test on MRSE ATCC 27626 [8] is reported as 20 (20) μg/ml. The “MIC MRSE” value against MRSE ATCC 27626 [4] was 20 (20) μg/ml.
For the molecule `COC(=O)[C@H](Cc1c[nH]c2ccccc12)NC(=O)[C@@H](N)CCCNC(=N)N` [RW-OMe] (H-Arg-Trp-OMe; N-terminus assumed), in the test with MRSA ATCC 33591 [1], the “MIC MRSA” value was over 300.0 µg/mL. The “MIC S. aureus” value in test [2] was over 300.0 µg/mL. For the same molecule, the “MIC E. coli” value in test [3] is over 300.0 µg/mL. Also, the “MIC MRSE” value in the test with MRSE ATCC 27626 [4] amounted to 200.0 µg/mL (≈ 534 µM).
With `COC(=O)[C@H](CCCNC(=N)N)NC(=O)[C@H](Cc1c[nH]c2ccccc12)NC(=O)[C@@H](N)CCCNC(=N)N` [RWR-OMe, H-L-Arg-L-Trp-L-Arg-OMe] (H-Arg-Trp-Arg-OMe), the “MBC MRSA” value with MRSA ATCC 33591 [5] was >200 (>200) μg/ml. The “MBC S. aureus” value in test [6] is reported as >200 (>200) μg/ml. Also, the “MBC E. coli” value in test [7] is on record as >200 (>200) μg/ml. The “MBC MRSE” value in the test with MRSE ATCC 27626 [8] was 200 µg/mL (≈ 377 µM).
